Structures are written as SMILES. Several values for one entry are separate records, joined by “and”; a condition that tells them apart may be missing. Equal entries are not always repeated. Where two headings read alike, the source gives them in different places.

Experiment [1] relates to Phakopsora pachyrhizi. The experiment is described as follows: Example D: preventative activity against Phakopsora pachyrhizi on soybean (whole plants sprayed, leaf disks inoculated). Type of experiment: in vivo. The source says:
(§1) Certain mixture compositions comprising a compound of formula (I) described above may show a synergistic effect. This occurs whenever the action of an active ingredient combination is greater than the sum of the actions of the individual components. The action to be expected E for a given active ingredient combination obeys the so-called COLBY formula and can be calculated as follows (COLBY, S. R. “Calculating synergistic and antagonistic responses of herbicide combination”. Weeds, Vol. 15, pages 20-22; 1967): • ppm=milligrams of active ingredient (=a.i.) per liter of spray mixture • X=% action by active ingredient A) using p ppm of active ingredient • Y=% action by active ingredient B) using q ppm of active ingredient.
(§2) According to COLBY, the expected (additive) action of active ingredients A)+B) using p+q ppm of active ingredient is:
(§3) If the action actually observed (O) is greater than the expected action (E), then the action of the combination is super-additive, i.e. there is a synergistic effect. In mathematical terms, synergism corresponds to a positive value for the difference of (O-E). In the case of purely complementary addition of activities (expected activity), said difference (O-E) is zero. A negative value of said difference (O-E) signals a loss of activity compared to the expected activity.
Whole soybean plants are treated with the recited active ingredients 4 weeks after planting. 1 day after spraying leaf disks are cut from the first trifoliate leaf. Five repetitions at each rate are conducted. The leaf disks are inoculated with Phakopsora pachyrhizi (Asian soybean rust) one day after treatment. Evaluation of the leaf disks is conducted 11 to 14 days after inoculation and the activity is derived from the relation of the treated vs untreated, infested check. (100=no disease, no damage to the leaf, 0=high infestation, leaf damaged heavily). The rates of the active ingredients used are given in the tables as g active ingredient (a.i.)/ha.

Experiment [2] relates to Corynespora cassiicola. In words: Example C5: mixtures against Corynespora cassiicola (target leaf spot), liquid culture. Type of experiment: cell-based. As to conditions: single component.
Description: as §1, §2, §3
(§4) Mycelia fragments or conidia suspensions of a fungus prepared either freshly from liquid cultures of the fungus or from cryogenic storage, are directly mixed into nutrient broth. DMSO solutions of the test compound (max. 10 mg/mL) are diluted with 0.025% Tween20 by a factor of 50 and 10 μl of this solution is pipetted into a microtiter plate (96-well format). The nutrient broth containing the fungal spores/mycelia fragments is then added to give an end concentration of the tested compound. The test plates are incubated in the dark at 24° C. and 96% relative humidity. The inhibition of fungal growth is determined photometrically after 2 to 7 days, depending on the pathosystem, and percent antifungal activity relative to the untreated check is calculated.
Conidia of the fungus from cryogenic storage were directly mixed into nutrient broth (PDB potato dextrose broth). A DMSO solution of the test compounds was placed into a microtiter plate (96-well format) and the nutrient broth containing the fungal spores was added to it. The test plates were incubated at 24 C and the inhibition of growth was determined photometrically after 3-4 days at 620 nm.
The following mixture compositions at the reported concentration (in ppm) in tables C4-3 and C4-4 gave the following disease control in this test (Corynespora cassiicola). Fungicidal activity was evaluated on a 100-0 scale (100=no disease growth; 0=well completely covered by mycelium).

Experiment [3] concerns Septoria glycines. In words: Example C3: mixtures against Septoria glycines (brown spot), liquid culture. It is filed as cell-based. Particulars: single component.
Description: This occurs whenever the action of an active ingredient combination is greater than the sum of the actions of the individual components. The action to be expected E for a given active ingredient combination obeys the so-called COLBY formula and can be calculated as follows (COLBY, S. R. “Calculating synergistic and antagonistic responses of herbicide combination”. Weeds, Vol. 15, pages 20-22; 1967): • ppm=milligrams of active ingredient (=a.i.) per liter of spray mixture • X=% action by active ingredient A) using p ppm of active ingredient • Y=% action by active ingredient B) using q ppm of active ingredient.
as §2, §3
as §4, with “The nutrient broth containing the fungal spores/mycelia fragments is then added to give an end concentration of the tested compound.” left out
Conidia of the fungus harvested from a fresh culture grown on artificial media, were directly mixed into nutrient broth (PDB potato dextrose broth). A DMSO solution of the test compounds was placed into a microtiter plate (96-well format) and the nutrient broth containing the fungal spores was added to it.
Fungicidal activity was evaluated on a 100-0 scale (100=no disease growth; 0=well completely covered by mycelium).

The subject of experiment [4] is Puccinia recondita (Brown rust). In words: Example B: comparative biological activity against Puccinia recondita (brown rust), curative, wheat leaf segments. Type of experiment: in vivo. As to conditions: 8 dpi. On the procedure: Method; Wheat leaf segments are placed on agar in multiwell plates (24-well format). The leaf segments are inoculated with a spore suspension of the fungus and sprayed with test solutions 1 day after inoculation. After appropriate incubation the activity of a compound is assessed 8 dpi (days after inoculation) as curative fungicidal activity.
The data are presented as the percentage of disease control of each compound for the biological tests and testing rates described below in table B1.

The test system of experiment [5] is Mycosphaerella arachidis syn. Cercospora arachidicola. In words: Example C1: mixtures against Mycosphaerella arachidis syn. Cercospora arachidicola (brown leaf spot), liquid culture. Type of experiment: cell-based. Particulars: single component, 100-0 scale (100=no disease growth).
Description: as §1, §2, §3, §4
(§5) Conidia of the fungus from cryogenic storage were directly mixed into nutrient broth (PDB potato dextrose broth). A DMSO solution of the test compounds was placed into a microtiter plate (96-well format) and the nutrient broth containing the fungal spores was added to it.
The following mixture compositions at the reported concentration (in ppm) in tables C1-3 and C1-4 gave the following disease control in this test Mycosphaerella arachidis syn. Cercospora arachidicola (Brown leaf spot of peanut). Fungicidal activity was evaluated on a 100-0 scale (100=no disease growth; 0=well completely covered by mycelium).

The test system of experiment [6] is Septoria tritici. In words: Example C2: mixtures against Septoria tritici (leaf blotch), liquid culture. Type of experiment: cell-based. Particulars: single component; for inhibition at 0.1 ppm: 100-0 scale (100=no disease growth).
Description: as §1, §2, §3, §4, §5
The following mixture compositions at the reported concentration (in ppm) in tables C2-3 to C2-5 gave the following disease control in this test Septoria tritici (leaf blotch). Fungicidal activity was evaluated on a 100-0 scale (100=no disease growth; 0=well completely covered by mycelium).

For experiment [7], the system named is Glomerella lagenarium syn. Colletotrichum lagenarium. In words: Example C4: mixtures against Glomerella lagenarium syn. Colletotrichum lagenarium (anthracnose), liquid culture. It is filed as cell-based. Particulars: single component.
Description: as §1, §2, §3, §4, §5
The following mixture compositions at the reported concentration (in ppm) in tables C4-3 and C4-4 gave the following disease control in this test (Glomerella lagenarium syn. Colletotrichum lagenarium). Fungicidal activity was evaluated on a 100-0 scale (100=no disease growth; 0=well completely covered by mycelium).

Setting [8] is: Zymoseptoria tritici, 100-0 scale.

In the case of `CO/C=C(\Oc1cc(C2CCCC2)ccc1C)C(=O)OC` [Compound X.02, methyl (Z)-2-(5-cyclopentyl-2-methyl-phenoxy)-3-methoxy-prop-2-enoate], the inhibition at 2.25 g/ha in experiment [1] (Phakopsora pachyrhizi, foliar, applied alone, 2.25 g/ha, read-out: Observed Activity (% of untreated)) stood at 13%; in experiment [1] (Phakopsora pachyrhizi, foliar, single active ingredient, 2.25 g/ha, read-out: Observed Activity (%)) it was 14%; in experiment [1] (Phakopsora pachyrhizi, foliar, single active ingredient, 2.25 g/ha, soybean, preventative, 100=no disease, read-out: Observed Activity (%)), 23%. The inhibition at 4.5 g/ha in experiment [1] (Phakopsora pachyrhizi, foliar, applied alone, 4.5 g/ha, read-out: Observed Activity (% of untreated)) was found to be 20%; in experiment [1] (Phakopsora pachyrhizi, foliar, single active ingredient, 4.5 g/ha, read-out: Observed Activity (%)), 22%; in experiment [1] (Phakopsora pachyrhizi, foliar, single active ingredient, 4.5 g/ha, soybean, preventative, 100=no disease, read-out: Observed Activity (%)), 33%. Moreover, the inhibition at 1.13 g/ha in experiment [1] (Phakopsora pachyrhizi, foliar, single active ingredient, soybean, preventative, 100=no disease, read-out: Observed Activity (%)) was found to be 1%. Moreover, the inhibition at 9 g/ha in experiment [1] (Phakopsora pachyrhizi, foliar, single active ingredient, 9 g/ha, read-out: Observed Activity (%)) came to 38%. The inhibition at 1 ppm in experiment [2] (Corynespora cassiicola, 1 ppm) is 20%. The inhibition at 0.03 ppm in experiment [3] (Septoria glycines, 100-0 scale (100=no disease growth)) amounted to 50%; in experiment [5] (Mycosphaerella arachidis), 50%; in experiment [6] (setting [8]), 0%; in experiment [7] (Colletotrichum orbiculare) it was 0%. The inhibition at 0.03125 ppm in experiment [3] (Septoria glycines, 0.03125 ppm) was 70%; in experiment [5] (Mycosphaerella arachidis, 0.03125 ppm) it was 70%; in experiment [6] (Zymoseptoria tritici, 0.03125 ppm, 100-0 scale) it was 20%. In addition, the inhibition at 0.1 ppm in experiment [3] (Septoria glycines, 0.1 ppm, 100-0 scale (100=no disease growth), read-out: Activity (%)) came out at 70%; in experiment [6] (Zymoseptoria tritici) it was 70%; in experiment [7] (Colletotrichum orbiculare, 0.1 ppm), 20%. For the same compound, the “control (%)” value in experiment [4] (20 ppm) was 0%; in experiment [4] (60 ppm) it was 0%; in experiment [4] (200 ppm), 100%. In addition, the inhibition at 0.0625 ppm in experiment [6] (Zymoseptoria tritici, 0.0625 ppm, 100-0 scale) was 90%.
Regarding `CCC(=O)Oc1c(OC)ccnc1C(=O)N[C@@H](C)C(=O)O[C@@H](C)[C@@H](C)c1ccccc1C` [[(1S,2S)-1-methyl-2-(o-tolyl)propyl] (2S)-2-[(4-methoxy-3-propanoyloxy-pyridine-2-carbonyl)amino]propanoate, reference compound], the inhibition at 0.03 ppm in experiment [2] (Corynespora cassiicola, 0.03 ppm) turned out to be 0%; in experiment [3] (Septoria glycines), 0%; in experiment [5] (Mycosphaerella arachidis) it was 70%; in experiment [6] (setting [8]) it was 50%. For the same compound, the inhibition at 0.06 ppm in experiment [2] (Corynespora cassiicola, 0.06 ppm) came out at 0%; in experiment [3] (Septoria glycines, 0.06 ppm), 0%; in experiment [6] (Zymoseptoria tritici, 0.06 ppm, 100-0 scale) it was 70%.
`CO/C=C(\Oc1cc(C2CCCCC2)ccc1C)C(=O)OC` [Compound X.04, methyl (Z)-2-(5-cyclohexyl-2-methyl-phenoxy)-3-methoxy-prop-2-enoate]: in experiment [1] (Phakopsora pachyrhizi, foliar, applied alone, read-out: Observed Activity (% of untreated)), the inhibition at 1.13 g/ha stood at 20%. Further, in experiment [1] (Phakopsora pachyrhizi, foliar, applied alone, 18 g/ha, read-out: Observed Activity (% of untreated)), the inhibition at 18 g/ha was 74%. The “Observed Activity (% of untreated)” value in experiment [1] (applied alone, 2.25 g/ha) is 22% and 35% and 17%; in experiment [1] (applied alone, 4.5 g/ha), 67% and 34% and 49% and 53%; in experiment [1] (applied alone, 9 g/ha) it was 81% and 59%. In addition, in experiment [2] (Corynespora cassiicola, 0.2 ppm), the inhibition at 0.2 ppm came out at 20%. Moreover, the inhibition at 0.00625 ppm in experiment [3] (Septoria glycines, 0.00625 ppm) was determined as 0%; in experiment [5] (Mycosphaerella arachidis, 0.00625 ppm), 0%; in experiment [6] (Zymoseptoria tritici, 0.00625 ppm, 100-0 scale) it was 0%. Moreover, the inhibition at 0.025 ppm in experiment [3] (Septoria glycines, 0.025 ppm) came to 90%; in experiment [6] (Zymoseptoria tritici, 0.025 ppm, 100-0 scale), 70%. Further, the inhibition at 0.03 ppm in experiment [3] (Septoria glycines) amounted to 70%; in experiment [6] (setting [8]) it was 50%; in experiment [7] (Colletotrichum orbiculare), 0%. In addition, the “control (%)” value in experiment [4] (20 ppm) was 90%; in experiment [4] (60 ppm), 100%; in experiment [4] (200 ppm) it was 100%. For the same compound, the inhibition at 0.1 ppm in experiment [6] (Zymoseptoria tritici) was 70%.
For `COc1ccnc(C(=O)N[C@@H](C)C(=O)O[C@@H](C)C(c2ccc(F)cc2)c2ccc(F)cc2)c1OC(C)=O` [Florylpicoxamid, reference compound], the “Activity (%)” value is recorded as 0% in experiment [2] (0.02 ppm); 0% in experiment [3] (0.01 ppm); 0% in experiment [3] (0.02 ppm); 50% in experiment [5] (0.01 ppm); 90% in experiment [5] (0.02 ppm); 70% in experiment [6] (0.01 ppm, 100-0 scale). Moreover, the “Activity (%)” value came to 90% in experiment [6] (0.02 ppm, 100-0 scale) and 20% in experiment [7] (0.1 ppm).

The record behind these values is patent publication US12532884B2, “Fungicidal compositions” (SYNGENTA CROP PROTECTION AG, priority 2020, dated 2026).
